Patent US20240252583A1, “Compositions and Methods for Treating Persistent Postsurgical Pain” (priority 2021, published 2024)
Like-named read-outs stand apart in the source and are kept apart here.

Assays:
CX3CR1 = CX3CR1 (Homo sapiens, UniProt P49238); details: CX3CL1 2.5 nM, FIG. 8
Method: All peptides were purified to >95% homogeneity and verified by HPLC isolation, amino acid analysis, and mass spectroscopy. Peptides were dissolved in sterile water and stored as frozen (−20° C.) aliquots at 0.1 mM until use. Chemotaxis was assayed in 96-well plates (NeuroProbe, Cabin John, MD) with […] pore size, PVP-free membranes. Purified human monocytes (>95%) prepared from healthy adult human donors by centrifugal elutriation (>95% pure) were resuspended in chemotaxis assay buffer (DMEM supplemented with 0.1% BSA) at a density of 2×10^6 cells/ml. Cells were labelled with 1.0 μM Calcein AM (Invitrogen) for 30 minutes at 37° C., 5% CO2. Following incubation, cells were washed once and resuspended in chemotaxis assay buffer (DMEM, 1 mg/ml BSA, 25 mM Hepes) at a density of 2×10^6 cells/ml. […] The filter plate ([…] pore size, PVP-free membrane) was snapped on over the filled wells and the monocytes were loaded onto the upper filter surface ([…] in 25 μl). […] At the conclusion of the test period, non-migrating cells were wiped off the upper filter surface and relative fluorescence units (RFUs) of the migrating cells from the lower surface determined by bottom reading in a spectrometer (M5 SpectraMax) at 485/530 nm (Ex/Em). Triplicate determinations were made and results are expressed as the mean Relative Fluorescence Units as depicted in FIG. 8.

plasma cytokines = assay: Plasma cytokine measurements in patients treated with DAPTA (capillary electrophoresis and ELISA); format: in vivo, humans
Description: The specific cytokines IL-1β, IL-10 and IL-12 have been identified as imbalanced following total knee replacement surgeries which increases risk for persistent post-operative pain. Measurement of these cytokines may be used to predict response to therapy, such as treatment by any of the peptides, salts thereof, or compositions of these, including those herein. Since the administration of the peptide DAPTA normalizes multiple plasma cytokines associated with PPSP then DAPTA and other analogs as we have described may be used to treat chronic pain conditions, specifically PPSP. Five HIV patients received DAPTA, 3 mgs/day, by metered nasal spray for 6 to 8 weeks (mean 7+0.6 wks). Patients were not taking other concurrent anti-pain or anti-retroviral therapies. At the beginning and end of the study period heparinized blood was collected and immediately clarified by centrifugation. Plasma aliquots were made and stored frozen at −70 C° for further testing. All sample testing was done on blinded samples at independent testing centers.
Cytokine measurements in patients treated with DAPTA were made after capillary electrophoresis isolation of individual cytokine peaks, followed by enzyme-linked immunoassay using specific antibodies. […] Separated chemical compounds appear as peaks with different migration times in an electropherogram. The purified sample peaks were individually collected and concentration determined by a quantitative enzyme-linked immunosorbent assay (ELISA) using specific antibodies to determine the analyte concentration.

[1] = Brain entry and pharmacokinetics of RAP-103 after oral gavage and IV dosing; format: in vivo, rats and guinea pigs
[2] = test system: post-incisional mechanical allodynia; details: RAP-103 0.5 mg/kg i.p.
Description: Data are expressed as mean±standard error of the mean (S.E.M.), and p<0.05 was accepted as statistically significant.

obesity = details: oral, daily administration for 3 weeks
Method: A subject is diagnosed with obesity. The subject is prescribed a dosing regimen of a pharmaceutical composition. The pharmaceutical composition comprises a therapeutically effective amount of RAP-103. RAP-103 is administered orally to treat obesity.

[3] = test system: STZ-induced diabetic neuropathic pain; details: oral administration for 7 days, FIG. 4
Method: Induction and assessment of diabetes in rats: Rats were fasted overnight and given a single intraperitoneal injection of STZ (60 mg/kg, Sigma-Aldrich) in citrate buffer (pH 4.5) to induce type I diabetes. The induction of diabetes was confirmed 72 h post-injection by blood glucose levels (Contour® blood glucose diagnostic kit, Bayer HealthCare, Canada). Body weight and blood glucose levels were measured before and 3 days post-STZ injection and once a week for three weeks post-diabetes induction. Only rats with blood glucose concentration consistently higher than 300 mg/dl were used for the study. Rats used for the study were monitored for persistent mechanical and cold allodynia (up to five months post-induction) and only animals with persistent pain were used. […]
Cold Allodynia: was assessed using the same apparatus as the von Frey test. Rats were allowed to adapt to the testing environment for at least 10 min. Then, a drop (50 μl) of acetone was applied with a glass syringe fitted with a blunted needle at the centre of the plantar face of a hind paw. Responses were monitored during 1 min after acetone application and were graded according to a 4-point scale: 0, no response; 1, quick withdrawal, flick or stamp of the paw; 2, prolonged withdrawal or repeated flicking of the paw; 3, repeated flicking of the paw with persistent licking directed at the ventral side of the paw. […]

[4] = test system: mRNAs encoding CCL2, CCL3, CCR2, CCR5, IL1β, and TNFα
stress from PPSP = details: oral pill, daily administration for one week
Method: A subject is diagnosed with stress from PPSP. A subject is prescribed a dosing regimen of a pharmaceutical composition. The pharmaceutical composition comprises a therapeutically effective amount of RAP-103. RAP-103 is administered orally as a pill to treat the stress from PPSP.

[5] = Plasma bioavailability and elimination half-life of RAP-103 (species not stated); format: in vivo; details: oral, i.p., ss, and IV dosing
[6] = Plasma pharmacokinetics and acute tolerability of RAP-103 in non-human primates; format: in vivo, Rhesus macaques (Macaca mulatta)
Method: In non-human primates (rhesus monkeys) RAP-103 was dosed once on Day 1 by intravenous bolus injection at 1 mg/kg and plasma levels determined. […] Drug in plasma after a single IV dose (1 mg/Kg) was still measurable at anticipated therapeutic levels 96 hrs. post-dose in non-human primates as shown in FIG. 2B.

[7] = test system: STZ-induced diabetic neuropathic pain
Method: Chronic pain development was determined with behavior and molecular/cellular testing and inflammatory reactions in Streptozotocin (STZ)-induced diabetic rats treated with RAP-103.
Induction and assessment of diabetes in rats: Rats were fasted overnight and given a single intraperitoneal injection of STZ (60 mg/kg, Sigma-Aldrich) in citrate buffer (pH 4.5) to induce type I diabetes. The induction of diabetes was confirmed 72 h post-injection by blood glucose levels (Contour® blood glucose diagnostic kit, Bayer HealthCare, Canada). Body weight and blood glucose levels were measured before and 3 days post-STZ injection and once a week for three weeks post-diabetes induction. Only rats with blood glucose concentration consistently higher than 300 mg/dl were used for the study. Rats used for the study were monitored for persistent mechanical and cold allodynia (up to five months post-induction) and only animals with persistent pain were used.
This solution was prepared freshly for each experiment and kept for 8 days (duration of one experiment) at room temperature. Appropriate concentration for each dose was adjusted accordingly.
Treatment paradigms: Autoclaved water (vehicle) or RAP-103 (0.004, 0.02, 0.1 or 0.5 mg/kg b.w.) was administered daily for 8 days by oral gavage to rats with stable mechanical and cold allodynia (n=5 H2O; n=7 RAP-103).
Assessment of neuropathic pain: Tactile allodynia, mechanical sensitivity was assessed using calibrated. Animals were placed in plexiglass boxes on an elevated metal mesh floor and allowed 60 min for habituation before testing. A series of von Frey filaments with logarithmically incrementing stiffness (Stoelting) was applied perpendicular to the midplantar region of the hind paw. The 50% paw withdrawal threshold was determined using Dixon's up-down method. Withdrawal thresholds of both paws were averaged as one single value per animal.
Cold Allodynia: was assessed using the same apparatus as the von Frey test. Rats were allowed to adapt to the testing environment for at least 10 min. Then, a drop (50 μl) of acetone was applied with a glass syringe fitted with a blunted needle at the centre of the plantar face of a hind paw. Responses were monitored during 1 min after acetone application and were graded according to a 4-point scale: 0, no response; 1, quick withdrawal, flick or stamp of the paw; 2, prolonged withdrawal or repeated flicking of the paw; 3, repeated flicking of the paw with persistent licking directed at the ventral side of the paw. Cumulative scores were then obtained by summing the four scores for each rat, the minimum score being 0 (no response to any of the four trials) and the maximum possible score being 12 (repeated flicking and licking of paws on each of the four trials). Rats were habituated to the testing environment. […] All data is presented as means±SEM. Statistical analysis was performed by two-way ANOVA followed by Bonferroni post-tests. The criterion for statistical significance was p<0.05.

[8] = plasma, five HIV patients, 3 mgs/day nasal spray, 6 to 8 weeks
[9] = partial nerve ligation and diabetic pain

CX3CR1, sequence (P49238 whole entry): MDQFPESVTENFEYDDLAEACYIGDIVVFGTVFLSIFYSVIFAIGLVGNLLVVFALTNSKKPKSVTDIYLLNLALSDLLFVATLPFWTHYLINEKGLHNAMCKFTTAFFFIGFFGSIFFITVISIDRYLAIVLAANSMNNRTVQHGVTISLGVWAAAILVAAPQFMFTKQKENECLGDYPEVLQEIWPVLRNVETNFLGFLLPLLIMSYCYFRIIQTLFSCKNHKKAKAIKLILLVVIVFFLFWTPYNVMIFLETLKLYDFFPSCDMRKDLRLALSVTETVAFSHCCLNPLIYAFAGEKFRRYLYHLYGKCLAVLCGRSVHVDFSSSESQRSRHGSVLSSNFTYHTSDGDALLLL

**Q.** Which “CX3CR1 mediated human monocyte chemotaxis, % of control migration” value (CX3CR1; 0.01 pM) does the source give for all-D-ASTTTNYT [RAP-310] here?
**A.** 38 % of control migration

**Q.** And the “CX3CR1 mediated human monocyte chemotaxis, % of control migration” value (CX3CR1; 1 pM)?
**A.** 24 % of control migration

**Q.** For dASTTTNYT-NH2 [DAPTA], which “cytokines IL-4, IL-10, IL-12 and IL-13” value (plasma cytokines; intranasal dosing, P<0.005) is on record?
**A.** increased significantly

**Q.** What about the “plasma levels of IL-1β, IL-6, IL-8, and TNFα” value (plasma cytokines; intranasal dosing, P<0.005) of the same compound?
**A.** significant reductions

**Q.** What about the “IL-1β % CHANGE BASELINE to POST-DRUG” value (plasma cytokines; plasma, **p < .005) of the same compound?
**A.** −46%**

**Q.** And the “IL-2 % CHANGE BASELINE to POST-DRUG” value (plasma cytokines; plasma, **p < .005)?
**A.** +395** %

**Q.** And the “IL-4 % CHANGE BASELINE to POST-DRUG” value (plasma cytokines; plasma, **p < .005)?
**A.** +448** %

**Q.** And the “IL-6 % CHANGE BASELINE to POST-DRUG” value (plasma cytokines; plasma, **p < .005)?
**A.** −28%**

**Q.** What about the “IL-8 % CHANGE BASELINE to POST-DRUG” value (plasma cytokines; plasma, **p < .005) of the same compound?
**A.** −30%**

**Q.** What about the “IL-10 % CHANGE BASELINE to POST-DRUG” value (plasma cytokines; plasma, **p < .005) of the same compound?
**A.** +350** %

**Q.** What about the “IL-12 % CHANGE BASELINE to POST-DRUG” value (plasma cytokines; plasma, **p < .005) of the same compound?
**A.** +363** %

**Q.** And the “IL-13 % CHANGE BASELINE to POST-DRUG” value (plasma cytokines; plasma, **p < .005)?
**A.** +416** %

**Q.** And the “TNFα % CHANGE BASELINE to POST-DRUG” value (plasma cytokines; plasma, **p < .005)?
**A.** −23%**

**Q.** What about the “IL-1β CYTOKINE MEAN ± s.e.m. Post-Treatment” value (plasma cytokines; [8]) of the same compound?
**A.** 174 ± 26 pgs/ml

**Q.** What about the “IL-2 CYTOKINE MEAN ± s.e.m. Post-Treatment” value (plasma cytokines; [8]) of the same compound?
**A.** 57 ± 9 pgs/ml

**Q.** And the “IL-4 CYTOKINE MEAN ± s.e.m. Post-Treatment” value (plasma cytokines; [8])?
**A.** 28 ± 8 pgs/ml

**Q.** And the “IL-6 CYTOKINE MEAN ± s.e.m. Post-Treatment” value (plasma cytokines; [8])?
**A.** 130 ± 21 pgs/ml

**Q.** What about the “IL-8 CYTOKINE MEAN ± s.e.m. Post-Treatment” value (plasma cytokines; [8]) of the same compound?
**A.** 144 ± 76 pgs/ml

**Q.** And the “IL-10 CYTOKINE MEAN ± s.e.m. Post-Treatment” value (plasma cytokines; [8])?
**A.** 45 ± 5 pgs/ml

**Q.** And the “IL-12 CYTOKINE MEAN ± s.e.m. Post-Treatment” value (plasma cytokines; [8])?
**A.** 33 ± 7 pgs/ml

**Q.** What about the “IL-13 CYTOKINE MEAN ± s.e.m. Post-Treatment” value (plasma cytokines; [8]) of the same compound?
**A.** 30 ± 9 pgs/ml

**Q.** And the “TNFα CYTOKINE MEAN ± s.e.m. Post-Treatment” value (plasma cytokines; [8])?
**A.** 260 ± 67 pgs/ml

**Q.** Which results are given for `C[C@H](O)[C@@H](N)C(=O)N[C@@H](C(=O)N[C@H](CC(N)=O)C(=O)N[C@H](Cc1ccc(O)cc1)C(=O)N[C@@H](C(=O)O)[C@H](C)O)[C@H](C)O` [RAP-103, All D-peptide-Thr-Thr-Asn-Tyr-Thr]?
**A.** brain entry by oral compared to IV dosing ([1]; FIG. 2A): preferentially entered the brain by oral compared to IV dosing; brain entry ([1]; IV or oral gavage dosing): quickly entered the brain; persistence at therapeutic levels in brain ([1]; IV or oral gavage dosing, FIG. 2A): at least 24 hrs; brain entry compared to plasma levels ([1]; in vivo): preferentially enters the brain compared to plasma levels; increase of the potency of morphine [2]: over 2 fold; subject's weight (obesity): decreases; cold allodynia [3]: reductions; chemokine receptor CCR2 ([4]; neuropathic pain, FIG. 5): lowered; chemokine receptor CCR5 ([4]; neuropathic pain, FIG. 5): lowered; spinal cord mRNA encoding cytokines and chemokines ([4]; oral administration for 7 days versus vehicle (H20), FIG. 5): reductions; CCL3 [4, 9]: significantly reduced; IL-1β [4, 9]: significantly reduced; TNFα [4, 9]: significantly reduced; stress and pain in patient suffering from PPSP (stress from PPSP): reduced; half-life ([5]; in vivo, read-out: half-life (HL) elimination (converted)): ~2.7 h; plasma bioavailability [5]: significant plasma bioavailability; Cmax and AUC 0-T in male versus female monkeys ([6]; 1 mg/kg): comparable; RAP-103-related changes in clinical observations or body weights ([6]; over seven days after dosing): no acute toxicity; time post-dose at which drug in plasma was still measurable at anticipated therapeutic levels ([6]; single IV dose 1 mg/Kg, FIG. 2B): ≥ 96 h; effect on mechanical allodynia by dose ([7]; 0.004 mg/kg daily oral): not; effect on mechanical allodynia by dose ([7]; 0.02 mg/kg daily oral): effective; effect on mechanical allodynia by dose ([7]; 0.1 mg/kg daily oral): effective; effect on mechanical allodynia by dose ([7]; 0.5 mg/kg daily oral): effective; time until reversal of hypersensitivity became significant ([7]; daily oral gavage): 24 to 48 h
